Assay results as given in article PMC3775761, “Structure-Activity Relationships of FMRF-NH2 Peptides Demonstrate A Role for the Conserved C Terminus and Unique N-Terminal Extension in Modulating Cardiac Contractility” (PLoS ONE, 2013).
Like-named read-outs stand apart in the source and are kept apart here.

Assays:
[1] = test system: adult, larval, and pupal heart; assay: in vivo semi-isolated heart rate assay; design: species or system Drosophila melanogaster; details: peptide 1 µM; for % increase in heart rate, Adult: adult heart (1 day adults); for % increase in heart rate, Adult / % increase in heart rate, Larval / % increase in heart rate, Pupal: maximum response within 10-minute recording, mean ± S.E.M., n≥6, basal heart rate = 100%; for % increase in heart rate, Larval: larval heart (wandering 3rd instar larvae); for % increase in heart rate, Pupal: pupal heart (white prepupae)
Protocol: D. melanogaster Oregon R strain flies were maintained on cornmeal molasses media at 24°C under a 12 hour light/dark cycle. Animals analyzed were wandering 3rd instar larvae, white prepupae, and 1 day adults. The effects of peptides and physiological saline, the carrier, were measured on both females and males; no sex-specific response was observed. The in vivo semi-isolated heart rate assays were performed according to a previously reported protocol. The rate of heart contractions for each animal was measured prior to application of a peptide (1 µM) or saline, the carrier, to provide a measure of basal rate. Animals (n≥6) were used only once. During and after delivery of the peptide or saline, contractions were continuously recorded for a 10-minute time period. The data analyzed were the maximum responses within the 10-minute recording period reported as mean values ± S.E.M. Data are reported as % basal heart rate where the frequency of contractions before application of peptide or saline is considered a measure of the baseline or basal level. Effects of peptides were compared to saline using Single Factor ANOVA with significance set at p ≤ 0.01; a peptide was considered to be active if its effects were statistically different from saline. The statistical outcomes were identical when calculated using two different data packages, Microsoft Excel and IBM SPSS.

[2] = test system: FMRFa-R; details: expressed FMRFa-R protein, cited from earlier work
Protocol: In contrast, when the small, non-aromatic residue A was substituted for F, strong contacts which anchored FMRF-NH2 in the FMRFa-R binding pocket were lost, which substantially weakened ligand-receptor interactions (Figure 5, Tables 5 and 6). In addition, the F ... || Next, the effect of the analog SDNAMRF-NH2 was measured on heart rate at 1 µM. SDNAMRF-NH2 increased adult heart rate by 48±10%, a significant effect similar to SDNFMRF-NH2 (Figure 12, Table 14). The effect of the peptide analog was analyzed in adult because it is a developmental stage in which a robust response occurs which thus allows for subtle changes to be observed. […] Past studies analyzed the effects of some or all of these peptides in a bioassay; yet no report to date investigated th ...

[3] = read-out: EC50, peptides bind FMRFa-R
[4] = Chinese hamster ovary cells, read-out: EC50, ligand-FMRFa-R binding

Row | Substance | % increase in heart rate, Adult [1] | % increase in heart rate, Larval [1] | % increase in heart rate, Pupal [1] | EC50 [2, 3] | EC50 [2, 4] | heart rate return to baseline ([1]; pupal heart, recording period)
1 | SPKQDFMRF-NH2 [D. melanogaster FMRF-NH2 peptide encoded in dFMRFa] | 32±8% | 23±6% | 12±1% | 2.5 nM |  | 
2 | SDNFMRF-NH2 [D. melanogaster FMRF-NH2 peptide encoded in dFMRFa] | 39±11% | 24±8% | 15±4% |  | 1.9 nM | 
3 | TPAEDFMRF-NH2 [D. melanogaster FMRF-NH2 peptide encoded in dFMRFa] | 40±2% | 20±4% | 26±8% | 2.8 nM |  | 
4 | DPKQDFMRF-NH2 [D. melanogaster FMRF-NH2 peptide encoded in dFMRFa] | 44±11% | 20±5% | 21±5% | 2 nM |  | 
5 | AMRF-NH2 [analog replacing F1 with A] |  |  |  |  | 3220 nM | 
6 | SDNAMRF-NH2 [designed analog of SDNFMRF-NH2 with F to A substitution] | 48±10% |  |  |  | 102 nM | 
7 | FMRF-NH2 [conserved C-terminal tetrapeptide; molluscan cardioexcitatory tetrapeptide] | 37±11% | 28±8% | 17±4% |  | 28 nM | 
8 | YMRF-NH2 [analog in which Y replaced F1] |  |  |  |  | 31 nM | 
9 | PDNFMRF-NH2 [D. melanogaster FMRF-NH2 peptide encoded in dFMRFa] | 51±12% | 26±5% | 27±7% | 1.8 nM |  | did not return to baseline within the recording period
